Source: ChEMBL document CHEMBL5365473, “Novel Sulfonylurea-Based NLRP3 Inflammasome Inhibitor for Efficient Treatment of Nonalcoholic Steatohepatitis, Endotoxic Shock, and Colitis” (J Med Chem, 2023)
Calls of active or inactive are those of the source. No cut-off for these calls is given here.

Assays:
[1] = Toxicity against male ICR mouse assessed as effect on liver weight at 200 to 500 mg/kg administered via gavage for 12 days; assay type: organism-based; details: in vivo, po, 288 h, dose 200-500 mg/kg, time 12 day
Mus musculus [2] = assay: Antiinflammatory activity against DSS-induced ulcerative colitis C57BL/6 mouse assessed as reduction in body weight loss at 10 mg/kg, ip administered for 9 days and measured daily; assay type: functional, organism-based; details: time 9.0 day
[3] = Toxicity against male ICR mouse assessed as effect on brain weight at 200 to 500 mg/kg administered via gavage for 12 days; assay type: organism-based; details: in vivo, po, 288 h, dose 200-500 mg/kg, time 12 day
Mus musculus [4] = assay: Antiinflammatory activity against MCD diet-induced NASH C57BL/6 mouse model assessed as reduction in liver fibrosis at 40 mg/kg, po administered via gavage for 5 weeks by Masson's trichrome staining based analysis; assay type: functional, organism-based
Mus musculus [5] = assay: Antiinflammatory activity against MCD diet-induced NASH C57BL/6 mouse model assessed as protection against MCD diet-induced increase in liver to body weight ratio at 40 mg/kg, po administered via gavage for 5 weeks; assay type: functional, organism-based
[6] = Drug uptake in Sprague-Dawley rat kidney at 50 mg/kg, po measured for 24 hrs by LC-MS/MS analysis; assay type: ADME, organism-based; details: in vivo
Mus musculus [7] = assay: Antiinflammatory activity against MCD diet-induced NASH C57BL/6 mouse model assessed as reduction in balloon dilatation in liver at 40 mg/kg, po administered via gavage for 5 weeks by Sirius red staining based analysis; assay type: functional, organism-based
Mus musculus [8] = assay: Antiinflammatory activity against MCD diet-induced NASH C57BL/6 mouse model assessed as reduction in TUNEL-positive hepatic cells at 40 mg/kg, po administered via gavage for 5 weeks by TUNEL assay; assay type: functional, organism-based
[9] = Toxicity against female ICR mouse assessed as effect on spleen weight at 200 to 500 mg/kg administered via gavage for 12 days; assay type: organism-based; details: in vivo, po, 288 h, dose 200-500 mg/kg, time 12 day
[10] = Toxicity against female ICR mouse assessed as effect on liver weight at 200 to 500 mg/kg administered via gavage for 12 days; assay type: organism-based; details: in vivo, po, 288 h, dose 200-500 mg/kg, time 12 day
[11] = Drug uptake in Sprague-Dawley rat heart at 50 mg/kg, po measured for 24 hrs by LC-MS/MS analysis; assay type: ADME, organism-based; details: in vivo
[12] = biological target: NACHT, LRR and PYD domains-containing protein 3 (Mus musculus) (UniProt Q8R4B8); assay: Inhibition of NLRP3 inflammasome in mouse J774.A1 cells assessed as inhibition of IL-1 beta secretion primed with LPS for 4.5 hrs followed by incubation with compound for 2.5 hrs and later stimulated with ATP for 30 mins by immunoblot analysis; assay type: cell-based; details: dose 3-30 nM, time 3.0 hrs
Sequence of NACHT, LRR and PYD domains-containing protein 3 (Mus musculus) (Q8R4B8 whole entry, the tested form may be a part): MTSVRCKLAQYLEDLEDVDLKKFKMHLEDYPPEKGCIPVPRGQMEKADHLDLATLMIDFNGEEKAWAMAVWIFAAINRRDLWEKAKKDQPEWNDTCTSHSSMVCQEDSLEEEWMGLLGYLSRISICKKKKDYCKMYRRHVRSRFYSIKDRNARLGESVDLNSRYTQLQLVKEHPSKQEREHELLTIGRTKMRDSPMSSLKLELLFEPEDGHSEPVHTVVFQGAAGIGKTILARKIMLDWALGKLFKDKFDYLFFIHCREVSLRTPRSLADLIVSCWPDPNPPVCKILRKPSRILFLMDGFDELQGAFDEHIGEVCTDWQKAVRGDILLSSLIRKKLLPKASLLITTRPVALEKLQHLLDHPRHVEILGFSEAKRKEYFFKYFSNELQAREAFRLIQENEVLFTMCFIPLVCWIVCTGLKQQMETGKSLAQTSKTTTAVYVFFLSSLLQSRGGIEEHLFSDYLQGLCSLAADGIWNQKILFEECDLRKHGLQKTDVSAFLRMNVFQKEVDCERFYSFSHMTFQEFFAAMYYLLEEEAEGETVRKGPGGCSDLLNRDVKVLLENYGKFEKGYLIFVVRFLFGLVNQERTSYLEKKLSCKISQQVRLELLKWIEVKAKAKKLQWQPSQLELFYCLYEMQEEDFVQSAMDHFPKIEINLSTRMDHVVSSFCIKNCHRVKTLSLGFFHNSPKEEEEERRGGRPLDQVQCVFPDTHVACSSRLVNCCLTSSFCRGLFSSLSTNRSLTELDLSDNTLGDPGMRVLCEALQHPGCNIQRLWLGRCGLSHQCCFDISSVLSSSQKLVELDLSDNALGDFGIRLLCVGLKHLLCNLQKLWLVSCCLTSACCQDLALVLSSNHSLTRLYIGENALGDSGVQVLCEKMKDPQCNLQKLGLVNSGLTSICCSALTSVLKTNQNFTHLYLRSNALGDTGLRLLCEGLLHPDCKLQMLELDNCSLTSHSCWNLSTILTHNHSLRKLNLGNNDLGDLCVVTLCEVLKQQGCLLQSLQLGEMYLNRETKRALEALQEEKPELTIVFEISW

[13] = Drug uptake in Sprague-Dawley rat jejunum at 50 mg/kg, po measured for 24 hrs by LC-MS/MS analysis; assay type: ADME, organism-based; details: in vivo
[14] = biological target: NACHT, LRR and PYD domains-containing protein 3 (Homo sapiens) (UniProt Q96P20); assay: Inhibition of NLRP3 inflammasome in PMA-induced differentiated human THP-1 cells assessed as inhibition of caspase-1 activation primed with LPS for 4.5 hrs followed by incubation with compound for 2.5 hrs and later stimulated with ATP for 1 hr by immunoblot analysis; assay type: cell-based; details: dose 3-30 nM, time 3.5 hrs
Sequence of NACHT, LRR and PYD domains-containing protein 3 (Homo sapiens) (Q96P20 whole entry, the tested form may be a part): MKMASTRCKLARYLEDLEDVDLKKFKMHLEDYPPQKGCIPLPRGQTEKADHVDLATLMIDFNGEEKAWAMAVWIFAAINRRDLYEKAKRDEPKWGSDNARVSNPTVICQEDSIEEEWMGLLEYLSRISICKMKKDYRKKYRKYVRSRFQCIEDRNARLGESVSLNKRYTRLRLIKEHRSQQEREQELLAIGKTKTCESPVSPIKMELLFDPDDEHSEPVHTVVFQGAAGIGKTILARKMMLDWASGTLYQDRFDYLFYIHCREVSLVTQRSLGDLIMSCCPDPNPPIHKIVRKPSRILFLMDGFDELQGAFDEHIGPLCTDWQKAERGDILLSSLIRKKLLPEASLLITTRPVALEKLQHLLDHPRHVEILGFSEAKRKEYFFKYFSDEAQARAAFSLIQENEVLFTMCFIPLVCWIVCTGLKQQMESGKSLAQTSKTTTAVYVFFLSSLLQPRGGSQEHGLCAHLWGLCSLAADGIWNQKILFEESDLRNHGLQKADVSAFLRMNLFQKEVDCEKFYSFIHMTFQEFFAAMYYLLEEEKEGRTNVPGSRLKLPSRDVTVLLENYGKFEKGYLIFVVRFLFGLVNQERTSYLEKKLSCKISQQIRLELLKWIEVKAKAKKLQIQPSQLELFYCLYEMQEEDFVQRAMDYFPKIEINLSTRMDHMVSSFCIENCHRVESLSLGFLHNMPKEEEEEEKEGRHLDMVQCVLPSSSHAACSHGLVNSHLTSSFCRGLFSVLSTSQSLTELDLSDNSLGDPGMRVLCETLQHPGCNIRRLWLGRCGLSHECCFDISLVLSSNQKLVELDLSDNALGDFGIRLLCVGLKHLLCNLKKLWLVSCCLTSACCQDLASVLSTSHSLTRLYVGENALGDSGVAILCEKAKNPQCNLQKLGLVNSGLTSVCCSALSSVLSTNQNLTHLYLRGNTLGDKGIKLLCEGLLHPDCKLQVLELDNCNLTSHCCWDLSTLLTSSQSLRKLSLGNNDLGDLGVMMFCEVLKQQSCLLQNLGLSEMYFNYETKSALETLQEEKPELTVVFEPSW

[15] = Drug uptake in Sprague-Dawley rat liver at 50 mg/kg, po measured for 24 hrs by LC-MS/MS analysis; assay type: ADME, organism-based; details: in vivo
[16] = Toxicity against male ICR mouse assessed as effect on ratio of plasma AST to ALT level at 200 to 500 mg/kg administered via gavage for 12 days; assay type: organism-based; details: in vivo, po, 288 h, dose 200-500 mg/kg, time 12 day
[17] = Effect on immune cell numbers in MCS diet-fed C57BL/6 mouse assessed as effect on F4/80 expression at 40 mg/kg, po administered via gavage for 5 weeks by immunofluorescence staining based analysis; assay type: toxicity, organism-based; details: in vivo, 840 h
[18] = Drug uptake in Sprague-Dawley rat lungs at 50 mg/kg, po measured for 24 hrs by LC-MS/MS analysis; assay type: ADME, organism-based, Lung; details: in vivo
[19] = Drug uptake in Sprague-Dawley rat spleen at 50 mg/kg, po measured for 24 hrs by LC-MS/MS analysis; assay type: ADME, organism-based; details: in vivo
L02 = assay: Cytotoxicity against human HL7702 cells assessed as reduction in cell viability at 500 uM measured after 24 hrs by CCK8 assay; assay type: toxicity, cell-based; details: l02, 24 h
[20] = Toxicity against male ICR mouse assessed as effect on body weight at 200 to 500 mg/kg administered via gavage for 12 days; assay type: organism-based; details: in vivo, po, 288 h, dose 200-500 mg/kg, time 12 day
[21] = Clearance in ICR mouse at 5 mg/kg, iv by LC-MS/MS analysis; assay type: ADME, organism-based; details: in vivo
Mus musculus [22] = assay: Antiinflammatory activity against LPS-induced lethal septic shock C57BL/6 mouse model assessed as effect on TNF-alpha level at 40 mg/kg, ip administered for 1 hr prior to LPS challenge and measured after 2.5 hrs by ELISA; assay type: functional, organism-based; details: time 3.5 hrs
[23] = MRT (0 to infinity) in ICR mouse at 5 mg/kg, iv by LC-MS/MS analysis; assay type: ADME, organism-based; details: in vivo
Mus musculus [24] = assay: Antiinflammatory activity against DSS-induced ulcerative colitis C57BL/6 mouse assessed as reduction in mucosal barrier disruption in colon at 10 mg/kg, ip administered for 9 days and measured on day 10 by H and E staining based analysis; assay type: functional, organism-based; details: time 10.0 day
[25] = biological target: T1, Interferon-inducible protein AIM2 (Mus musculus) (UniProt Q91VJ1); assay: Inhibition of AIM2 inflammasome in mouse J774.A1 cells assessed as inhibition of IL-1 beta secretion at 30 nM primed with LPS for 4.5 hrs followed by incubation with compound for 24 hrs and later stimulated with poly (dA:dT) for 6 hrs by immunoblot analysis; assay type: cell-based; details: time 30.0 hrs
T1 sequence (whole entry): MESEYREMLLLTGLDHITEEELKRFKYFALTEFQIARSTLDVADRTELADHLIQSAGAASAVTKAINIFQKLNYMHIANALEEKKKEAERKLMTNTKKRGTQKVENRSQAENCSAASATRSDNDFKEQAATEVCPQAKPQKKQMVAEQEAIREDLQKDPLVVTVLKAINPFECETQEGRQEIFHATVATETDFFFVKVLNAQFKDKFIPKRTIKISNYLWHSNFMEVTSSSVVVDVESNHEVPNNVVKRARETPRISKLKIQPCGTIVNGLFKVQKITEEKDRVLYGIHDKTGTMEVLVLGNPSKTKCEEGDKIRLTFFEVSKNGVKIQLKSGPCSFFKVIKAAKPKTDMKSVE

[26] = Tmax in ICR mouse at 5 mg/kg, iv by LC-MS/MS analysis; assay type: ADME, organism-based; details: in vivo
[27] = AUC (0 to infinity) in ICR mouse at 5 mg/kg, iv by LC-MS/MS analysis; assay type: ADME, organism-based; design: dose 5 mg/kg, route iv; details: in vivo
[28] = Toxicity against female ICR mouse assessed as effect on plasma ALT level at 200 to 500 mg/kg administered via gavage for 12 days; assay type: organism-based; details: in vivo, po, 288 h, dose 200-500 mg/kg, time 12 day

CN(C)Cc1ccc(S(=O)(=O)NC(=O)Nc2c3c(cc4c2CCC4)CCC3)cc1
Activity [1]: Non-Toxic | Activity (Mus musculus [2]): Active | Activity [3]: Non-Toxic | Activity (Mus musculus [4]): Active | Activity (Mus musculus [5]): Active | Drug uptake [6]: Active | Activity (Mus musculus [7]): Active | Activity (Mus musculus [8]): Active | Activity [9]: Non-Toxic | Activity [10]: Non-Toxic | Drug uptake [11]: Active | inhibition [12]: Dose-Dependent Effect | Drug uptake [13]: Active | inhibition [14]: Dose-Dependent Effect | Drug uptake [15]: Active | Activity [16]: Non-Toxic | Activity [17]: Non-Toxic | Drug uptake [18]: Active | Drug uptake [19]: Active | Activity (L02): Non-Toxic | Activity [20]: Non-Toxic | clearance [21]: 0.647 mL/min/kg | Activity (Mus musculus [22]): inactive | MRT inf [23]: 5.3 h | Activity (Mus musculus [24]): Active | inhibition [25]: inactive | Tmax [26]: 4.98 min | AUC(0-inf) [27]: 130 µg·h/mL | Activity [28]: Non-Toxic
